Results as given in ChEMBL document CHEMBL1795303, “Synthesis and evaluation of benzofuran-2-yl(phenyl)methanone derivatives as ligands for β-amyloid plaques” (Bioorg Med Chem, 2011).
One block for each molecule: values may come before it. Calls of active or inactive are those of the source. The calls are words filed in the database; no cut-off is given here.

How the values were obtained:
[1] = Displacement of [125I]-IMPY from amyloid beta (1 to 42) after 2 hrs by gamma counting
Mus musculus [2] = species on record: Mus musculus; test: Binding affinity to beta-amyloid in APP/PS1 transgenic C57 mouse brain at 5 uCi/[…] after 1 hr by autoradiography; assay type: tissue-based; settings: tested as the 125I-labelled form
Mus musculus [3] = test: Biodistribution in ddY mouse thyroid assessed per organ at 0.9 uCi, iv after 60 mins by gamma counting; assay type: ADME, organism-based, Thyroid gland; settings: in vivo, 1 h
Spleen [4] = test: Biodistribution in ddY mouse spleen at 0.9 uCi, iv after 2 mins by gamma counting; assay type: ADME, organism-based; settings: in vivo
Heart [5] = test: Biodistribution in ddY mouse heart at 0.9 uCi, iv after 120 mins by gamma counting; assay type: ADME, organism-based; settings: in vivo, 2 h
Intestine [6] = test: Biodistribution in ddY mouse intestine at 0.9 uCi, iv after 30 mins by gamma counting; assay type: ADME, organism-based; settings: in vivo, 0.5 h
Heart [7] = test: Biodistribution in ddY mouse heart at 0.9 uCi, iv after 60 mins by gamma counting; assay type: ADME, organism-based; settings: in vivo, 1 h
Lung [8] = test: Biodistribution in ddY mouse lung at 0.9 uCi, iv after 60 mins by gamma counting; assay type: ADME, organism-based; settings: in vivo, 1 h
Brain [9] = test: Biodistribution in ddY mouse brain at 0.9 uCi, iv after 2 mins by gamma counting; assay type: ADME, organism-based; settings: in vivo
Blood [10] = test: Biodistribution in ddY mouse blood at 0.9 uCi, iv after 15 mins by gamma counting; assay type: ADME, organism-based; settings: in vivo, 0.25 h
Spleen [11] = test: Biodistribution in ddY mouse spleen at 0.9 uCi, iv after 15 mins by gamma counting; assay type: ADME, organism-based; settings: in vivo, 0.25 h
Liver [12] = test: Biodistribution in ddY mouse liver at 0.9 uCi, iv after 60 mins by gamma counting; assay type: ADME, organism-based; settings: in vivo, 1 h
Intestine [13] = test: Biodistribution in ddY mouse intestine at 0.9 uCi, iv after 15 mins by gamma counting; assay type: ADME, organism-based; settings: in vivo, 0.25 h
Lung [14] = test: Biodistribution in ddY mouse lung at 0.9 uCi, iv after 2 mins by gamma counting; assay type: ADME, organism-based; settings: in vivo
Liver [15] = test: Biodistribution in ddY mouse liver at 0.9 uCi, iv after 2 mins by gamma counting; assay type: ADME, organism-based; settings: in vivo
Lung [16] = test: Biodistribution in ddY mouse lung at 0.9 uCi, iv after 120 mins by gamma counting; assay type: ADME, organism-based; settings: in vivo, 2 h
Kidney [17] = test: Biodistribution in ddY mouse kidney at 0.9 uCi, iv after 60 mins by gamma counting; assay type: ADME, organism-based; settings: in vivo, 1 h
Blood [18] = test: Biodistribution in ddY mouse blood at 0.9 uCi, iv after 120 mins by gamma counting; assay type: ADME, organism-based; settings: in vivo, 2 h
Liver [19] = test: Biodistribution in ddY mouse liver at 0.9 uCi, iv after 120 mins by gamma counting; assay type: ADME, organism-based; settings: in vivo, 2 h
Stomach [20] = test: Biodistribution in ddY mouse stomach assessed per organ at 0.9 uCi, iv after 120 mins by gamma counting; assay type: ADME, organism-based; settings: in vivo, 2 h
Mus musculus [21] = test: Biodistribution in ddY mouse thyroid assessed per organ at 0.9 uCi, iv after 120 mins by gamma counting; assay type: ADME, organism-based, Thyroid gland; settings: in vivo, 2 h
Kidney [22] = test: Biodistribution in ddY mouse kidney at 0.9 uCi, iv after 2 mins by gamma counting; assay type: ADME, organism-based; settings: in vivo
Heart [23] = test: Biodistribution in ddY mouse heart at 0.9 uCi, iv after 30 mins by gamma counting; assay type: ADME, organism-based; settings: in vivo, 0.5 h
Spleen [24] = test: Biodistribution in ddY mouse spleen at 0.9 uCi, iv after 120 mins by gamma counting; assay type: ADME, organism-based; settings: in vivo, 2 h
Lung [25] = test: Biodistribution in ddY mouse lung at 0.9 uCi, iv after 30 mins by gamma counting; assay type: ADME, organism-based; settings: in vivo, 0.5 h
Brain [26] = test: Biodistribution in ddY mouse brain at 0.9 uCi, iv after 30 mins by gamma counting; assay type: ADME, organism-based; settings: in vivo, 0.5 h
Stomach [27] = test: Biodistribution in ddY mouse stomach assessed per organ at 0.9 uCi, iv after 30 mins by gamma counting; assay type: ADME, organism-based; settings: in vivo, 0.5 h
Brain [28] = test: Biodistribution in ddY mouse brain at 0.9 uCi, iv after 120 mins by gamma counting; assay type: ADME, organism-based; settings: in vivo, 2 h
Mus musculus [29] = test: Biodistribution in ddY mouse thyroid assessed per organ at 0.9 uCi, iv after 30 mins by gamma counting; assay type: ADME, organism-based, Thyroid gland; settings: in vivo, 0.5 h
Stomach [30] = test: Biodistribution in ddY mouse stomach assessed per organ at 0.9 uCi, iv after 2 mins by gamma counting; assay type: ADME, organism-based; settings: in vivo
Spleen [31] = test: Biodistribution in ddY mouse spleen at 0.9 uCi, iv after 60 mins by gamma counting; assay type: ADME, organism-based; settings: in vivo, 1 h
Stomach [32] = test: Biodistribution in ddY mouse stomach assessed per organ at 0.9 uCi, iv after 15 mins by gamma counting; assay type: ADME, organism-based; settings: in vivo, 0.25 h
Lung [33] = test: Biodistribution in ddY mouse lung at 0.9 uCi, iv after 15 mins by gamma counting; assay type: ADME, organism-based; settings: in vivo, 0.25 h
Brain [34] = test: Biodistribution in ddY mouse brain at 0.9 uCi, iv after 15 mins by gamma counting; assay type: ADME, organism-based; settings: in vivo, 0.25 h
Stomach [35] = test: Biodistribution in ddY mouse stomach assessed per organ at 0.9 uCi, iv after 60 mins by gamma counting; assay type: ADME, organism-based; settings: in vivo, 1 h
Kidney [36] = test: Biodistribution in ddY mouse kidney at 0.9 uCi, iv after 30 mins by gamma counting; assay type: ADME, organism-based; settings: in vivo, 0.5 h
Liver [37] = test: Biodistribution in ddY mouse liver at 0.9 uCi, iv after 15 mins by gamma counting; assay type: ADME, organism-based; settings: in vivo, 0.25 h
Brain [38] = test: Ratio of drug level in brain after 2 mins to drug level in brain after 30 mins ddY mouse at 0.9 uCi, iv; assay type: ADME, organism-based; settings: in vivo
Heart [39] = test: Biodistribution in ddY mouse heart at 0.9 uCi, iv after 15 mins by gamma counting; assay type: ADME, organism-based; settings: in vivo, 0.25 h
Blood [40] = test: Biodistribution in ddY mouse blood at 0.9 uCi, iv after 2 mins by gamma counting; assay type: ADME, organism-based; settings: in vivo
Spleen [41] = test: Biodistribution in ddY mouse spleen at 0.9 uCi, iv after 30 mins by gamma counting; assay type: ADME, organism-based; settings: in vivo, 0.5 h
Blood [42] = test: Biodistribution in ddY mouse blood at 0.9 uCi, iv after 60 mins by gamma counting; assay type: ADME, organism-based; settings: in vivo, 1 h
Intestine [43] = test: Biodistribution in ddY mouse intestine at 0.9 uCi, iv after 2 mins by gamma counting; assay type: ADME, organism-based; settings: in vivo
Brain [44] = test: Biodistribution in ddY mouse brain at 0.9 uCi, iv after 60 mins by gamma counting; assay type: ADME, organism-based; settings: in vivo, 1 h
Mus musculus [45] = test: Biodistribution in ddY mouse thyroid assessed per organ at 0.9 uCi, iv after 15 mins by gamma counting; assay type: ADME, organism-based, Thyroid gland; settings: in vivo, 0.25 h
Liver [46] = test: Biodistribution in ddY mouse liver at 0.9 uCi, iv after 30 mins by gamma counting; assay type: ADME, organism-based; settings: in vivo, 0.5 h
Heart [47] = test: Biodistribution in ddY mouse heart at 0.9 uCi, iv after 2 mins by gamma counting; assay type: ADME, organism-based; settings: in vivo
Intestine [48] = test: Biodistribution in ddY mouse intestine at 0.9 uCi, iv after 60 mins by gamma counting; assay type: ADME, organism-based; settings: in vivo, 1 h
Blood [49] = test: Biodistribution in ddY mouse blood at 0.9 uCi, iv after 30 mins by gamma counting; assay type: ADME, organism-based; settings: in vivo, 0.5 h
Kidney [50] = test: Biodistribution in ddY mouse kidney at 0.9 uCi, iv after 15 mins by gamma counting; assay type: ADME, organism-based; settings: in vivo, 0.25 h
Kidney [51] = test: Biodistribution in ddY mouse kidney at 0.9 uCi, iv after 120 mins by gamma counting; assay type: ADME, organism-based; settings: in vivo, 2 h
Intestine [52] = test: Biodistribution in ddY mouse intestine at 0.9 uCi, iv after 120 mins by gamma counting; assay type: ADME, organism-based; settings: in vivo, 2 h
Mus musculus [53] = test: Biodistribution in ddY mouse thyroid assessed per organ at 0.9 uCi, iv after 2 mins by gamma counting; assay type: ADME, organism-based, Thyroid gland; settings: in vivo
[54] = Lipophilicity, log D of the compound; assay type: physicochemical; settings: octanol/water

SMILES: Nc1ccc(C(=O)c2cc3cc(Br)ccc3o2)cc1
Ki [1]: 157 nM

SMILES: CN(C)c1ccc(C(=O)c2cc3cc(Br)ccc3o2)cc1
Ki [1]: 8.8 nM

SMILES: CNc1ccc(C(=O)c2cc3cc(Br)ccc3o2)cc1
Ki [1]: 44.9 nM

SMILES: CN(C)c1ccc(C(=O)c2cc3cc(I)ccc3o2)cc1
Ki [1]: 6.6 nM | Activity (Mus musculus [2]): Active

Second part, the molecule after the results:

Ki [1]: 34.5 nM | Activity (Mus musculus [2]): Active
SMILES: CNc1ccc(C(=O)c2cc3cc(I)ccc3o2)cc1

Ki [1]: 133 nM
SMILES: Nc1ccc(C(=O)c2cc3cc(I)ccc3o2)cc1

Ki [1]: > 1000 nM
SMILES: O=C(c1ccc([N+](=O)[O-])cc1)c1cc2cc(I)ccc2o1

Drug uptake (Mus musculus [3]): 0.46 %ID | Drug uptake (Spleen [4]): 2.75 % ID/g | Drug uptake (Heart [5]): 0.49 % ID/g | Drug uptake (Intestine [6]): 21.81 % ID/g | Drug uptake (Heart [7]): 0.74 % ID/g | Drug uptake (Lung [8]): 0.94 % ID/g | Drug uptake (Brain [9]): 3.53 % ID/g | Drug uptake (Blood [10]): 1.16 % ID/g | Drug uptake (Spleen [11]): 1.59 % ID/g | Drug uptake (Liver [12]): 5.09 % ID/g | Drug uptake (Intestine [13]): 11.77 % ID/g | Drug uptake (Lung [14]): 7.34 % ID/g | Drug uptake (Liver [15]): 16.19 % ID/g | Drug uptake (Lung [16]): 0.79 % ID/g | Drug uptake (Kidney [17]): 1.9 % ID/g | Drug uptake (Blood [18]): 0.63 % ID/g | Drug uptake (Liver [19]): 3.59 % ID/g | Drug uptake (Stomach [20]): 3.76 %ID | Drug uptake (Mus musculus [21]): 0.8 %ID | Drug uptake (Kidney [22]): 10.26 % ID/g | Drug uptake (Heart [23]): 1.15 % ID/g | Drug uptake (Spleen [24]): 0.43 % ID/g | Drug uptake (Lung [25]): 1.61 % ID/g | Drug uptake (Brain [26]): 1.51 % ID/g | Drug uptake (Stomach [27]): 2.6 %ID | Drug uptake (Brain [28]): 0.41 % ID/g | Drug uptake (Mus musculus [29]): 0.18 %ID | Drug uptake (Stomach [30]): 0.95 %ID | Drug uptake (Spleen [31]): 0.66 % ID/g | Drug uptake (Stomach [32]): 1.54 %ID | Drug uptake (Lung [33]): 2.2 % ID/g | Drug uptake (Brain [34]): 2.38 % ID/g | Drug uptake (Stomach [35]): 3.1 %ID | Drug uptake (Kidney [36]): 4.28 % ID/g | Drug uptake (Liver [37]): 11 % ID/g | Ratio (Brain [38]): 2.34 | Drug uptake (Heart [39]): 1.45 % ID/g | Drug uptake (Blood [40]): 2.56 % ID/g | Drug uptake (Spleen [41]): 0.94 % ID/g | Drug uptake (Blood [42]): 0.82 % ID/g | Drug uptake (Intestine [43]): 3.14 % ID/g | Drug uptake (Brain [44]): 0.87 % ID/g | Drug uptake (Mus musculus [45]): 0.05 %ID | Drug uptake (Liver [46]): 6.7 % ID/g | Drug uptake (Heart [47]): 7.01 % ID/g | Drug uptake (Intestine [48]): 20.88 % ID/g | Drug uptake (Blood [49]): 1.07 % ID/g | Drug uptake (Kidney [50]): 3.84 % ID/g | Drug uptake (Kidney [51]): 1.64 % ID/g | Drug uptake (Intestine [52]): 25.19 % ID/g | Drug uptake (Mus musculus [53]): 0.02 %ID | logD [54]: 4.4
SMILES: CN(C)c1ccc(C(=O)c2cc3cc([125I])ccc3o2)cc1

Ki [1]: > 1000 nM
SMILES: O=C(c1ccc([N+](=O)[O-])cc1)c1cc2cc(Br)ccc2o1
